Earlier results as cited in patent US20060135540A1, “PPAR active compounds” (priority 2004, published 2006).

Columns and labels:
[1] = target: T1, PPARδ (Homo sapiens, UniProt Q03181)
T1 sequence (Q03181 1-441): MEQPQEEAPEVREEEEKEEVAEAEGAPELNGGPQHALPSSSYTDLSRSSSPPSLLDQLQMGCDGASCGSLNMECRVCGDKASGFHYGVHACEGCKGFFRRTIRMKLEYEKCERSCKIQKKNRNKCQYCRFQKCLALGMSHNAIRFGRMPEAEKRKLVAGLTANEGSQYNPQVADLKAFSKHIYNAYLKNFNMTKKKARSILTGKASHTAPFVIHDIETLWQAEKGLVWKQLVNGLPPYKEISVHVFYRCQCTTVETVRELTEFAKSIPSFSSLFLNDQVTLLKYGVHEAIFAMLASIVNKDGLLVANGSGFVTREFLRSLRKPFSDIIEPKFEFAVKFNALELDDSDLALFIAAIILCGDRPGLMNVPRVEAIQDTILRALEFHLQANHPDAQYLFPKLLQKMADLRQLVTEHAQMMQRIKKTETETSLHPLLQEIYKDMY

[2] = target: T2, murine PPARα (Mus musculus, UniProt P23204)
T2 sequence (P23204 1-468): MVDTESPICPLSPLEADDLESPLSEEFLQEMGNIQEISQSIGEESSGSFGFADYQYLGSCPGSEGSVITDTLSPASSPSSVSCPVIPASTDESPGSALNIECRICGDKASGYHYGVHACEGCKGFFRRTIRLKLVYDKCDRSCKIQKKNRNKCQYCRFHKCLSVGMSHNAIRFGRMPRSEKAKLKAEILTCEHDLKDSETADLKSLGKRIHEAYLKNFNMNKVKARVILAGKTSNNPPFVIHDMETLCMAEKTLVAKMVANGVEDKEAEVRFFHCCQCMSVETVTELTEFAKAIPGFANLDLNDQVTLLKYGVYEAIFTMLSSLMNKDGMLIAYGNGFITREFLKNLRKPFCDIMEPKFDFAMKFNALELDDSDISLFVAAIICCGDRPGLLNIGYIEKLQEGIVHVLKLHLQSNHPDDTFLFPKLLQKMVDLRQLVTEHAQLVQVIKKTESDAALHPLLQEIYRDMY

[3] = patients, large prospective trial

SMILES | agonist selectivity for PPARδ over PPARγ [1] | activity on murine PPARα [2] | reduction in cardiovascular events or death [3]
CCCc1c(OCCCOc2ccc(OCC(=O)O)cc2)ccc(C(C)=O)c1O [Compound L-165041] | approximately 30 fold | inactive | 
Cc1ccc(C)c(OCCCC(C)(C)C(=O)O)c1 [gemfibrozil] |  |  | 22%
